The test system of this assay is Tg-TauP301L mice. The assay can be described thus: Hippocampal PHF Tau hyperphosphorylation (AT8) in Tg-TauP301L model of tauopathy. Type of assay: in vivo, mouse. As to conditions: 12 months-old Tg-TauP301L mice treated for 6 months. The source says: For a genetic model of familial AD (FAD), Tg2576 mice (Taconic Biosciences, Rensselaer, N.Y., USA) were used with neuron-specific overexpression of human APPSwe, i.e the Swedish mutation of APP695 isolated from a Swedish family with FAD featuring the double mutation K670N/M671L (Hsiao et al., Science 274, 99-103 (1996)). As a genetic model of tauopathy, the Tg-TauP301L mice (Model 2508, Taconic Biosciences, Rensselaer, N.Y., USA) with neuron-specific expression of the most common FTDP-17 (frontotemporal dementia and parkinsonism linked to chromosome 17) mutation (Lewis et al., Nature Genetics 25, 402-405 (2000)) were used. To enhance neurodegeneration and neuronal loss, the CUMS (chronic unpredictable mild stress) protocol was performed with male 12 months-old Tg2576 mice for 3 months essentially as described (AbdAlla et al., J. Biol. Chem. 284, 6554-6565 (2009); AbdAlla et al., J. Biol. Chem. 284, 6566-6574 (2009)). […]
Similarly, hyperphosphorylated Tau was detected with AT8 antibody on paraffin-embedded brain sections from 12 months-old Tg-TauP301L mice (Model 2508, Taconic Biosciences, Rensselaer, N.Y., USA) without and with treatment with Compound-1 and Compound-4 for 6 months. […]

With `O=C(C1=C(O)C(c2ccccc2)N(c2ccc3c(c2)OCO3)C1=O)C1CC1` (centres unmarked) [Compound-1, 1-(1,3-benzodioxol-5-yl)-4-(cyclopropane-carbonyl)-3-hydroxy-2-phenyl-2H-pyrrol-5-one], the “hippocampal content of hyperphosphorylated PHF-Tau (quantitative, [125I]-AT8 binding)” value is on record as “significantly decreased hippocampal content of hyperphosphorylated PHF-Tau”. Moreover, the “PHF Tau hyperphosphorylation in hippocampal CA3 area (immunohistology)” value (8 mg/kg/d in drinking water) is listed as “largely absent”.

The values above are taken from patent US20210015793A1, “COMPOUNDS FOR TREATING CNS- AND NEURODEGENERATIVE DISEASES” (ETH ZURICH, priority 2018, published 2021).
